Literature values in US12479917B2, “Methods of treating NSCLC comprising administering platinum doublet chemotherapy followed by an anti-PD-1 antibody and an anti-CTLA-4 antibody” (priority 2018, dated 2025).

Experiments:
[1] = tested on: advanced NSCLC; details: second line (2 L)
[2] = monotherapy, every two weeks; MTD not reached

For `Nc1nc2[nH]cc(CCc3ccc(C(=O)N[C@@H](CCC(=O)O)C(=O)O)cc3)c2c(=O)[nH]1` [Pemetrexed], the “efficacy outcomes compared with docetaxel” value [1] is given as “clinically equivalent efficacy outcomes” and the “side effects compared with docetaxel” value [1] is given as “significantly fewer side effects”.
In the case of nivolumab, the “maximum tolerated dose (MTD)” value [2] is given as greater than 10 mg/kg.
